# Assays:
# [1] = test system: Cal-27 cells; assay: Proliferation of tongue squamous cell carcinoma Cal-27 cells (CCK-8); assay type: cell-based; settings: 48 h treatment, CCK-8, FIG. 1
# Procedure: Cells in good growth state were counted and inoculated into 96-well plates with 100 μL per well according to a certain cell density. After the cells adherence to the wall overnight, a medicament solution was added to intervene the cells. After 48 h of medicament treatment, CCK-8 reagent was added, 10 μL per well. After incubation for 2 h, the culture plates were taken out and detected at 450 nm wavelength of the enzymograph.
# [2] = test system: Cal-27 cells; assay: Killing effect of lymphocytes on tumor cells in Cal-27/PBMC co-culture (Incucyte); assay type: cell-based; settings: compared with PBMC control group, anti-PD-1 antibody 5 μg/mL; for killing effect of lymphocytes on tumor cells: FIG. 5, Rg3 1, 5, 10 μM; for number of Cal-27 cells / killing effect of lymphocytes on tumor cells: FIG. 3, Rh2 1, 5, 10 μM, effect-to-target ratio 5:1
# Procedure: Cal-27 cells in good growth state were digested and centrifuged, appropriate amount of cell suspension was taken and placed in a new centrifuge tube, incubated with the target red label reagent for 20 min, washed and centrifuged with serum-free culture solution, then plated, and placed in an incubator for overnight cultivation to make them adhere to the wall. PBMC stimulated by PHA was added into the well plate in ratios of 1:1, 5:1, 10:1 and 20:1, and Incucyte real-time dynamic cell imaging system was used to observe the killing effect of lymphocytes on tumor cells under different target ratio conditions.
# Cal-27 cells in good growth statu were digested and centrifuged, incubated with red target labeling reagent for 20 min, and washed with serum-free culture solution. After the cells were adherence to the wall overnight, the PBMC stimulated by PHA was added to the well plate according to the effect-to-target ratio of 5:1 and co-cultured with Cal-27 cells. Ginsenoside Rh2 or ginsenoside Rg3 of medicament solution with different concentrations were prepared, and they and 5 μg/mL human anti-PD-1 antibody were added into the well plate for incubation, and were divided into control group, ginsenoside alone group, anti-PD-1 antibody alone group, ginsenoside and anti-PD-1 antibody combination group. The culture plates were placed into Incucyte real-time dynamic cell imaging analysis system for real-time monitoring.
# [3] = Rh2 as metabolite relative to ginsenoside Rg3; cited from earlier work
# [4] = test system: SCC-7 cells; assay: Tumor growth in head and neck squamous cell carcinoma-bearing mice; assay type: in vivo; settings: FIG. 6A; alone, versus model control; Rh2 15 mg/kg intragastric; anti-PD-1 antibody 200 μg/mice intraperitoneal
# Procedure: SPF grade C57 mice, 6 weeks old, female, were purchased from Beijing Charles River Laboratories Animal Company. […] OF MEDICINAL PLANT DEVELOPMENT. The experimental facilities comply with barrier environmental standards, with a temperature of 20° C. to 26° C., a relative humidity of 40% to 70%, and light and dark alternating for 12 hours each. Mice were raised in standard boxes, with 5 mice per cage. During the raising process, the animals were allowed to eat and move freely.
# (§1) The mice were randomly divided into four groups: model control group, ginsenoside Rh2 group (15 mg/kg), anti-PD-1 antibody group (200 μg/mice), and ginsenoside Rh2 in combination with anti-PD-1 antibody group. The administration time and volume were as follows: ginsenoside Rh2 was administered intragastrically 5 days before vaccination; anti-PD-1 antibody was administered intraperitoneally on days 3, 6, 9, and 12 after vaccination.
# (§2) SCC-7 cells were resuscitated and expanded in large quantities. Trypsin was added to digest and the cells were collected. After counted, the cells were re-suspended in PBS solution and the cell concentration was adjusted, and the mice were inoculated with 5*10^6 cells/0.2 mL in the right armpit.
# Throughout the experiment, the tumor volume of the mice was measured twice weekly.
# After the experiment, the mice's eyeballs were removed to collect blood, and the tumor tissue was peeled off. […]
# [5] = test system: tumor-infiltrating lymphocytes; assay: Tumor-infiltrating lymphocyte levels in mice tumor tissue (flow cytometry); assay type: in vivo; settings: for number/abundance of T cells infiltrating into tumors: FIGS. 7A and 7D
# Procedure: as §1, §2
# After the experiment, the mice's eyeballs were removed to collect blood, and the tumor tissue was peeled off. The tumor tissue was divided into two parts, one part was quickly frozen in liquid nitrogen and then transferred to a −80° C. refrigerator for storage, and the other part was stored in PBS solution for flow cytometry detection.
# Mice tumor samples were cut into pieces with sterile scissors, ground gently with a syringe stopper, and filtered through a 40 μm filter to prepare a single cell suspension. The cell suspension was transferred to a new centrifuge tube, PBS solution was added, the supernatant was discarded after centrifugation, and the remaining was washed with PBS and centrifuged again. PBS was added to re-suspended, 100 μL of resuspending solution was placed into the flow tube, the corresponding flow cytometry antibody was added for incubating and staining for 20 minutes, and then on-machine detection was performed.
compound,measurement,setting,value
CC(C)=CCC[C@](C)(O[C@@H]1O[C@H](CO)[C@@H](O)[C@H](O)[C@H]1O)[C@H]1CC[C@]2(C)[C@@H]1[C@H](O)C[C@@H]1[C@@]3(C)CC[C@H](O)C(C)(C)[C@@H]3CC[C@]12C [ginsenoside CK],inhibitory effect on Cal-27 cells,[1],most significant inhibitory effect
CC(C)=CCC[C@](C)(O[C@@H]1O[C@H](CO[C@@H]2O[C@H](CO)[C@@H](O)[C@H](O)[C@H]2O)[C@@H](O)[C@H](O)[C@H]1O)[C@H]1CC[C@]2(C)[C@@H]1[C@H](O)C[C@@H]1[C@@]3(C)CC[C@H](O[C@@H]4O[C@H](CO)[C@@H](O)[C@H](O)[C@H]4O[C@@H]4O[C@H](CO)[C@@H](O)[C@H](O)[C@H]4O)C(C)(C)[C@@H]3CC[C@]12C [ginsenoside Rb1],IC50,[1],~100 µM
same,inhibitory effect on Cal-27 cells,[1],concentration-dependent inhibitory effects
CC(C)=CCC[C@](C)(O[C@@H]1O[C@H](CO[C@@H]2OC[C@@H](O)[C@H](O)[C@H]2O)[C@@H](O)[C@H](O)[C@H]1O)[C@H]1CC[C@]2(C)[C@@H]1[C@H](O)C[C@@H]1[C@@]3(C)CC[C@H](O[C@@H]4O[C@H](CO)[C@@H](O)[C@H](O)[C@H]4O[C@@H]4O[C@H](CO)[C@@H](O)[C@H](O)[C@H]4O)C(C)(C)[C@@H]3CC[C@]12C [ginsenoside Rb3],IC50,[1],~100 µM
same,inhibitory effect on Cal-27 cells,[1],concentration-dependent inhibitory effects
CC(C)=CCC[C@](C)(O[C@@H]1O[C@H](CO[C@@H]2O[C@@H](CO)[C@H](O)[C@H]2O)[C@@H](O)[C@H](O)[C@H]1O)[C@H]1CC[C@]2(C)[C@@H]1[C@H](O)C[C@@H]1[C@@]3(C)CC[C@H](O[C@@H]4O[C@H](CO)[C@@H](O)[C@H](O)[C@H]4O[C@@H]4O[C@H](CO)[C@@H](O)[C@H](O)[C@H]4O)C(C)(C)[C@@H]3CC[C@]12C [ginsenoside Rc],inhibitory effect on Cal-27 cells,[1],concentration-dependent inhibitory effects
same,IC50,"[1]; Homo sapiens, CAL-27",~100 µM
CC(C)=CCC[C@](C)(O[C@@H]1O[C@H](CO)[C@@H](O)[C@H](O)[C@H]1O)[C@H]1CC[C@]2(C)[C@@H]1[C@H](O)C[C@@H]1[C@@]3(C)CC[C@H](O)C(C)(C)[C@@H]3[C@@H](O[C@@H]3O[C@H](CO)[C@@H](O)[C@H](O)[C@H]3O[C@@H]3O[C@@H](C)[C@H](O)[C@@H](O)[C@H]3O)C[C@]12C [ginsenoside Re],inhibitory effect on Cal-27 cells,[1],concentration-dependent inhibitory effects
same,IC50,"[1]; Homo sapiens, CAL-27",~100 µM
CC(C)=CCC[C@](C)(O[C@@H]1O[C@H](CO)[C@@H](O)[C@H](O)[C@H]1O)[C@H]1CC[C@]2(C)[C@@H]1[C@H](O)C[C@@H]1[C@@]3(C)CC[C@H](O)C(C)(C)[C@@H]3[C@@H](O[C@@H]3O[C@H](CO)[C@@H](O)[C@H](O)[C@H]3O)C[C@]12C [ginsenoside Rg1],IC50,[1],~100 µM
same,inhibitory effect on Cal-27 cells,[1],concentration-dependent inhibitory effects
CC(C)=CCC[C@](C)(O)[C@H]1CC[C@]2(C)[C@@H]1[C@H](O)C[C@@H]1[C@@]3(C)CC[C@H](O[C@@H]4O[C@H](CO)[C@@H](O)[C@H](O)[C@H]4O[C@@H]4O[C@H](CO)[C@@H](O)[C@H](O)[C@H]4O)C(C)(C)[C@@H]3CC[C@]12C [ginsenoside Rg3],inhibitory effect on Cal-27 cells,[1],most significant inhibitory effect
same,killing effect of lymphocytes on tumor cells,[2],can promote the killing effect of lymphocytes
CC(C)=CCC[C@](C)(O)[C@H]1CC[C@]2(C)[C@@H]1[C@H](O)C[C@@H]1[C@@]3(C)CC[C@H](O)C(C)(C)[C@@H]3[C@@H](O[C@@H]3O[C@H](CO)[C@@H](O)[C@H](O)[C@H]3O)C[C@]12C [ginsenoside Rh1],IC50,[1],~100 µM
same,inhibitory effect on Cal-27 cells,[1],concentration-dependent inhibitory effects
CC(C)=CCC[C@](C)(O)[C@H]1CC[C@]2(C)[C@@H]1[C@H](O)C[C@@H]1[C@@]3(C)CC[C@H](O[C@@H]4O[C@H](CO)[C@@H](O)[C@H](O)[C@H]4O)C(C)(C)[C@@H]3CC[C@]12C [ginsenoside Rh2],content increased,[3],50 times
same,oral bioavailability increased,[3],5 times
same,inhibitory effect on Cal-27 cells,[1],most significant inhibitory effect
same,tumor volume,[4],significantly reduce the tumor size
same,number of Cal-27 cells / killing effect of lymphocytes on tumor cells,[2],can reduce the number of Cal-27 cells
same,number/abundance of T cells infiltrating into tumors,[5],neither ginsenoside Rh2 nor anti-PD-1 antibody had a significant effect
same,proportion of B cell activation,"[5]; FIGS. 7C and 7F, P<0.05",significantly increase the proportion of B cell activation
pembrolizumab [anti-PD-1 antibody],tumor volume,[4],decreased slightly
same,number of Cal-27 cells / killing effect of lymphocytes on tumor cells,[2],can also significantly promote the killing effect of lymphocytes
same,killing effect of lymphocytes on tumor cells,[2],can significantly promote the killing effect of lymphocytes
same,number/abundance of T cells infiltrating into tumors,[5],neither ginsenoside Rh2 nor anti-PD-1 antibody had a significant effect
same,infiltration level of CD8+ T cells in tumors,"[5]; FIGS. 7B and 7E, P<0.05",increased significantly

# Source: US20260256821A1, “USE OF GINSENOSIDE IN COMBINATION WITH PD-1 BLOCKER IN PREPARING MEDICAMENT AGAINST HEAD AND NECK SQUAMOUS CELL CARCINOMA” (CHINESE ACADEMY OF MEDICAL SCIENCES INSTITUTE OF MEDICINAL …, priority 2022, published 2026)
